Test results taken from patent publication US10704076B2, “Multi-tiered high through-put screen for compounds effective against bacterial biofilm and compounds effective for inhibiting and eradicating bacterial biofilm” (University of Cincinnati, priority 2013, dated 2020).

Key:
S. epidermidis = test: HTS total bacterial growth assay (optical density OD560); format: cell-based; settings: Staphylococcus epidermidis, dose-response, read-out: Total Bacteria Growth AC50
Text: (§1) Each HTS tier consisted of: (i) primary screening, (ii) confirmation screening and (iii) dose-response curve screening. Each tier of HTS included three distinct biological process assays. The first assay was an optical density measurement of bacteria growth in the presence of each compound reported as a total bacteria growth. In the second assay, resazurin solution was used as an indicator of metabolic activity to measure the live bacteria in the biofilms, reported as live biofilm. The final assay was crystal violet staining, which indicated the amount of biofilm formation and the effect of each compound on this process, reported as total biofilm formation.
(§2) Briefly, stationary phase bacteria grown in L-broth were diluted 1:200 into fresh L-broth and 50 μM of each test compound. After 20-24 hours, the optical density (OD560) of each suspension was measured using Zeiss Plate::Vision with a 560 BP filter (560 nm, 2.5% light intensity, 1 mm focus to bottom of plate, and exposure time of 100 ms). To measure bacterial viability in the biofilm, 50 μl of a 5 mg/ml resazurin solution in L-broth was added to each well after washing 3 times with 50 μl of PBS. The plates were then incubated at 37° C. for 30 or 180 min for A. baumannii and P. aeruginosa biofilms, respectively. Fluorescence was measured using Zeiss Plate::Vision at excitation and emission wavelengths of 535 and 580 nm, 100 ms exposure time, 2.5% intensity and a 2 mm focus to the bottom of the biofilms. To assess biofilm formation, plates were washed 3 times with PBS and then 50 μl of 0.01% of crystal violet was added to each well to assess bacterial biofilm formation as described in a similar borosilicate tube assay by O'Toole and Kolter. After incubation at room temperature for 30 min and removal of the crystal violet solution by washing with PBS, 95% ethanol was added to solubilize the crystal violet followed by incubation for 20 min at room temperature. Finally, the optical density of each plate was determined using measured by Zeiss Plate::Vision using the same settings used to measure total bacterial growth. These 3 steps were used in each of the three tiers for the HTS process: (i) single point primary screening at 10 μM, (ii) triplicate confirmation of hits from (i) at 10 μM and (iii) determination of AC50 values in 10 point dose-response at a concentration range of 0.1-50 μM) in hits from (ii). The AC50 represents the concentration of compound that inhibits 50% of bacterial growth, bacterial viability, or biofilm formation. Genedata Screener® Assay Analyzer Software (Ver. 9.0.0 Standard) was used to analyze data from all assay tiers. Compounds with an AC50 of less than 20 μM in one of the biological assays from the dose response screen were subject to additional investigation.

A. baumannii biofilm [1] = test: HTS total biofilm formation assay (crystal violet staining); format: cell-based, Acinetobacter baumannii; settings: for AC50: Acinetobacter baumannii, 10 point dose-response 0.1-50 μM
Text: as §1, §2

A. baumannii biofilm [2] = test: CLSM, co-culture of bacteria with compound (inhibition of biofilm formation); format: cell-based, Acinetobacter baumannii; settings: for killing of residential bacteria, co-culture (CLSM, in words): 10 μM; for Co-culture of bacteria with compound: Killing: Y / —
Protocol: (§3) Broad spectrum agents (effective against all three bacterial species) and single agent compounds identified as HTS hits were investigated with CLSM confirmation of inhibition of biofilm formation (culture of bacteria with compounds) or killing of bacteria residing within an established biofilm (compound addition after culturing biofilm). To evaluate inhibition of P. aeruginosa biofilms, bacteria were sub-cultured into 10% L-broth and grown at 37° C. until the OD600 reached 0.25. The bacteria were further diluted 1:100 into a modified 0.5×M63 minimum media (50 mM KH2PO4, 7.5 mM (NH4)2SO4, 9 μM FeSO4, 0.5% casamino acids, 0.2% glucose, and 1 mM MgSO4). A. baumannii biofilms were also grown in 10% L-broth until the OD600 reached 0.05 but diluted 1:10 into 5% L-broth media. S. epidermidis biofilm cultures were grown. Briefly, the bacteria were grown in TSB until the OD600 reached 0.75, and a 1:100 dilution of the bacteria was sub-cultured into phosphate buffered saline (PBS). All of the biofilm bacterial cultures were grown in 96-well plate chambers (MatTek Corp., Ashland, Mass.) in the presence of 10 μM of each compound or DMSO as a control and incubated for 18 hrs at 37° C. To investigate the ability of compounds to kill bacteria within pre-existing biofilms, biofilms were grown under the same conditions, but without test compound. These biofilms were washed once with PBS and incubated an additional 24 hr at 37° C. in PBS containing 300 μM of each compound. All biofilm cultures were then washed twice with 100 μL of PBS and stained using the LIVE/DEAD® BacLight™ Bacterial Viability Kit (Invitrogen). Finally, biofilm images were obtained using a Zeiss LSM510 META Confocal Microscope (Carl Zeiss, Inc., Germany). A 488 nm laser was used in conjunction with a Plan-Apochromat 100×/1.4 Oil DIC objective. Z-stacks were 8 bit and measured 127.3 μm×127.3 μm×16.0 μm in size. The filters used were 505-530 and 620-680 IR, as the excitation and emission wavelengths for red fluorescence are 490 nm and 635 nm, respectively, and 480 nm and 500 nm for green fluorescence. Three dimensional images were generated using the “Projection” ability on LSM Image Browser software (v.1.4.0.121) or Zeiss LSM image browser software version 3.5 (Carl Zeiss, Inc., Germany), and Live/Dead calculations were conducted based upon these images using MacBiophotonics ImageJ following the guidelines in the cell counting guide by C. Labno {Rasband, 1997-2011 #25; Labno, #2} at the University of Chicago Integrated Light Microscopy Core. The thickness of the biofilm was calculated using Comstat software. A hit was defined as a >50% dead to live ratio.
(§4) The CLSM experiment was performed in one or two or all bacteria used in this study depending on its activity. For the validation of HTS hits, 10 μM of compound was added to each bacterial suspension and the resulting biofilm stained with LIVE/DEAD® BacLight™ Bacterial Viability Kit. The images were analyzed to determine the live and dead ratios of biofilm bacteria, the thickness of biofilms, and structural attributes of biofilms.

P. aeruginosa biofilm = test: as above; format: cell-based, Pseudomonas aeruginosa; settings: for killing of residential bacteria, co-culture (CLSM, in words): 10 μM; for Co-culture of bacteria with compound: Killing: Y / —
Protocol: as §3, §4

O=C(O)c1cn(C2CC2)c2c(F)c(N3CC(O)C3)c(F)cc2c1=O [Compound 8, 1-cyclopropyl-6,8-difluoro-7-(3-hydroxyazetidin-1-yl)-4-oxoquinoline-3-carboxylic acid]
AC50 (S. epidermidis): < 0.1 µM
HTS assay results: Biofilm Formation (A. baumannii biofilm [1]; Y / —): —* (AC50 higher than 20 μM)
killing of residential bacteria, co-culture (CLSM, in words) (A. baumannii biofilm [2]): killed residential bacteria
Co-culture of bacteria with compound: Killing (A. baumannii biofilm [2]; CLSM, 10 μM compound, 18 hrs): Y (A hit was defined as a >50% dead to live ratio)

O=C(O)c1cn(C2CC2)c2c(F)c(-c3ccncc3)c(F)cc2c1=O [Compound 11, 7-(4-pyridyl)-1-cyclopropyl-6,8-difluoro-4-oxoquinoline-3-carboxylic acid]
AC50 (S. epidermidis): < 0.1 µM
AC50 (A. baumannii biofilm [1]): 0.85 µM
Co-culture of bacteria with compound: Inhibit biofilm formation (A. baumannii biofilm [2]; CLSM, 10 μM compound, 18 hrs): inhibited biofilm formation
Co-culture of bacteria with compound: Inhibit biofilm formation (P. aeruginosa biofilm; CLSM, 10 μM compound, 18 hrs): no effect

Cn1sc(Cl)c(C#N)c1=O [Compound 3, 5-chloro-2-methyl-3-oxo-1,2-thiazole-4-carbonitrile]
AC50 (S. epidermidis): 8.89 µM
AC50 (A. baumannii biofilm [1]): 4.45 µM
killing of residential bacteria, co-culture (CLSM, in words) (A. baumannii biofilm [2]): killed residential bacteria
Co-culture of bacteria with compound: Killing (A. baumannii biofilm [2]; CLSM, 10 μM compound, 18 hrs): Y (A hit was defined as a >50% dead to live ratio)
killing of residential bacteria, co-culture (CLSM, in words) (P. aeruginosa biofilm): killed residential bacteria
Co-culture of bacteria with compound: Killing (P. aeruginosa biofilm; CLSM, 10 μM compound, 18 hrs): Y (A hit was defined as a >50% dead to live ratio)

NC(=S)N1CCN(c2cc3c(cc2F)c(=O)c(C(=O)O)cn3C2CC2)CC1 [Compound 7, 7-(4-carbamothioylpiperazin-1-yl)-1-cyclopropyl-6-fluoro-4-oxoquinoline-3-carboxylic acid]
AC50 (S. epidermidis): 2.2 µM
AC50 (A. baumannii biofilm [1]): 17.7 µM
killing of residential bacteria, co-culture (CLSM, in words) (A. baumannii biofilm [2]): killed residential bacteria
Co-culture of bacteria with compound: Killing (A. baumannii biofilm [2]; CLSM, 10 μM compound, 18 hrs): Y (A hit was defined as a >50% dead to live ratio)
killing of residential bacteria, co-culture (CLSM, in words) (P. aeruginosa biofilm): killed residential bacteria
Co-culture of bacteria with compound: Killing (P. aeruginosa biofilm; CLSM, 10 μM compound, 18 hrs): Y (A hit was defined as a >50% dead to live ratio)
